Results on two compounds are retold here after US12714677B2, “Dual chamber syringe for administering a hormone encapsulated by a hydrogel” (VITALTE LIFESCIENCES INC., priority 2024, dated 2026).

Structures are written as SMILES.

A short description of data set [1]: E2 release from hydrogel discs, E2 pellets and E2 powder into incubation medium (ELISA). Format: physicochemical. Conditions: 50 mL incubation medium, 37° C., 6 rpm. The source says: (§1) Low standards were removed from the analysis.
In general terms: In an ELISA, binding on a coated surface is turned into a signal by an enzyme label.

Data set [2] is described as follows: Release assay on E2 microspheres (same manner as discs). Format: physicochemical. Conditions: day 3. As for the experimental part: Release assays on the E2 microspheres were conducted in the same manner as described above for the discs.
as §1

The conditions of data set [3]: cited from earlier work.

On to `C[C@]12CC[C@@H]3c4ccc(O)cc4CC[C@H]3[C@@H]1CC[C@@H]2O` [E2 powder, Beta-estradiol], for which the results for the “E2 released into incubation media (concentration)” value in data set [1] (day 1 / 24 hours) and in data set [1] (day 2 / 48 hours) were “about 1.85 mg/L” and “reached the saturation point of the incubation media”, respectively. For the same compound, the “E2 released into incubation media (accumulated concentration)” value in data set [1] (day 3 / 72 hours) is “maintained the saturation point concentration”. Also, the E2 release level result in data set [2] is listed as “approximates the saturation level of E2 in the incubation medium”.

`C[C@]12CC[C@H]3[C@@H](CCC4=CC(=O)CC[C@@]43C)[C@@H]1CC[C@@H]2O` [T, Testosterone]: the “solubility factor in water compared to E2” value in data set [3] is recorded as “much higher”.
